Measurements taken from patent US4229477A, “Pharmaceutical compositions containing bromhexine and method of treating diabetic nephropathy therewith” (Boehringer Ingelheim GmbH, priority 1978, dated 1980).

Key:
[1] = tested on: glycoprotein metabolism; test: Effect of bromhexine on glycoprotein metabolism: urinary excretion of carbohydrate-containing material, diabetics; assay type: in vivo, humans
Protocol: (§1) The effect of N-(2-amino-3,5-dibromo-benzyl)-N-methyl-cyclohexylammonium chloride (Bromhexine) on glycoprotein metabolism was determined as follows:
(§2) 24 hour collections were made from 8 normal healthy humans (4 women and 4 men) and 8 diabetics (1 woman and 7 men) before and after a 3 to 4 week period of treating each subject orally 3 times with 24 mg of bromhexine. A 20% by volume aliquot was taken from each urine specimen and freeze-dried.
(§3) The dried material (ca 1 gm) was dissolved in the minimum quantity of distilled water and the solution was chromatographed with water on a Sephadez G-50 column (length: 148 cm; diameter: 3.4 cm). The carbohydrate-containing fraction was collected and subjected to ultrafiltration using a UM-05 membrane (Amicon Ultrafiltration Cell-Model 202). The filtrate obtained was again freeze-dried.
(§4) The dried material (ca 1 mg) was analyzed for carbohydrate, using gas-liquid chromatography. In this procedure, the sample, together with internal standards, was first subjected to methanolysis with 1.0 M HCl in dry methanol (0.5 ml) for 24 hours at 85° C. The resulting solution was neutralized and then treated with acetic acid anhydride (0.05 ml) for 6 hours. On completion of the treatment the solution obtained was centrifuged, and the supernatant liquid was transferred to a clean flask, dried and stored in a dessicator. When required for gas chromatography, the dried material was triturated with a trimethylsilylating mixture, and the resulting trimethylsilyl ethers of the methyl glycosides were subjected to gas chromatography (140°-200° C. at 0.5° C./min.).
5 patients were maintained on insulin, 2 on oral hypoglycemic agents and 1 on diet alone. Diabetic treatment was not changed during the study. 3 patients suffered varying degrees of retinopathy, 1 had ischaemic heart disease and 1 had intermittent proteinuria.

[2] = tested on: mice; details: British Pat. No. 968,254; cited from earlier work
[3] = tested on: glycoprotein metabolism; test: Effect of bromhexine on glycoprotein metabolism: urinary excretion of carbohydrate-containing material, healthy subjects; assay type: in vivo, humans; details: after treatment
Protocol: as §1, §2, §3, §4

[4] = healthy subjects, oral, 3 times 24 mg, 3 to 4 weeks, before 121

CN(Cc1cc(Br)cc(Br)c1N)C1CCCCC1 [N-(2-amino-3,5-dibromo-benzyl)-N-methyl-cyclohexylamine]
proportion of saccharide and glycopeptide excreted ([1]; diabetics, 15 to 30 mg, 3 to 4 times per day): strongly reduced to levels equivalent to those of a normal healthy subject

CN(Cc1cc(Br)cc(Br)c1N)C1CCCCC1.Cl [bromhexine, N-(2-amino-3,5-dibromo-benzyl)-N-methyl-cyclohexylammonium chloride]
excretion of carbohydrate-containing material ([1]; diabetic subjects, after treatment): considerable decrease
24 - Hour Volume ([1]; diabetics, after treatment, oral, 3 times 24 mg, 3 to 4 weeks, 24 hour urine, before 1,694): 1,686 ml
Fraction dry weight ([1]; diabetics, after treatment, oral, 3 times 24 mg, 3 to 4 weeks, before 8.7): 6.1 gm
Total dry weight ([1]; diabetics, after treatment, oral, 3 times 24 mg, 3 to 4 weeks, before 102.6): 110.7 gm
Carbohydrate content: N-Acetylneuraminic acid ([1]; diabetics, after treatment, oral, 3 times 24 mg, 3 to 4 weeks, before 195): 145 μMol/24 hours
Carbohydrate content: Mannose ([1]; diabetics, after treatment, oral, 3 times 24 mg, 3 to 4 weeks, before 205): 121 μMol/24 hours
Carbohydrate content: Fucose ([1]; diabetics, after treatment, oral, 3 times 24 mg, 3 to 4 weeks, before 259): 203 μMol/24 hours
Carbohydrate content: N-Acetylgalactosamine ([1]; diabetics, after treatment, oral, 3 times 24 mg, 3 to 4 weeks, before 264): 176 μMol/24 hours
Carbohydrate content: N-Acetylglucosamine ([1]; diabetics, after treatment, oral, 3 times 24 mg, 3 to 4 weeks, before 313): 181 μMol/24 hours
Carbohydrate content: Galactose ([1]; diabetics, after treatment, oral, 3 times 24 mg, 3 to 4 weeks, before 616): 383 μMol/24 hours
Carbohydrate content: Glucuronic acid ([1]; diabetics, after treatment, oral, 3 times 24 mg, 3 to 4 weeks, before 1,854): 987 μMol/24 hours
Carbohydrate content: Glucose ([1]; diabetics, after treatment, oral, 3 times 24 mg, 3 to 4 weeks, before 12,609): 7,241 μMol/24 hours
animals died (acute oral toxicity) [2]: 0 out of 10
24 - Hour Volume ([3]; healthy subjects, oral, 3 times 24 mg, 3 to 4 weeks, 24 hour urine, before 1,281): 1,406 ml
Fraction dry weight ([3]; healthy subjects, oral, 3 times 24 mg, 3 to 4 weeks, before 4.2): 4.4 gm
Total dry weight ([3]; healthy subjects, oral, 3 times 24 mg, 3 to 4 weeks, before 36.3): 44.0 gm
Carbohydrate content: N-Acetylneuraminic acid ([3]; healthy subjects, oral, 3 times 24 mg, 3 to 4 weeks, before 94): 147 μMol/24 hours
Carbohydrate content: Fucose [3, 4]: 224 μMol/24 hours
Carbohydrate content: Mannose [3, 4]: 169 μMol/24 hours
Carbohydrate content: N-Acetylgalactosamine ([3]; healthy subjects, oral, 3 times 24 mg, 3 to 4 weeks, before 139): 196 μMol/24 hours
Carbohydrate content: N-Acetylglucosamine ([3]; healthy subjects, oral, 3 times 24 mg, 3 to 4 weeks, before 204): 287 μMol/24 hours
Carbohydrate content: Galactose ([3]; healthy subjects, oral, 3 times 24 mg, 3 to 4 weeks, before 258): 364 μMol/24 hours
Carbohydrate content: Glucose ([3]; healthy subjects, oral, 3 times 24 mg, 3 to 4 weeks, before 329): 425 μMol/24 hours
Carbohydrate content: Glucuronic acid ([3]; healthy subjects, oral, 3 times 24 mg, 3 to 4 weeks, before 1,085): 1,573 μMol/24 hours
urinary excretion of carbohydrate-containing material ([3]; normal subjects): insignificant rise
